Experimental data: patent publication US8614239B2 (Novartis AG, priority 2009, dated 2013)

Legend:
A375 cells = assay: Cell viability assay in A375 cells (XTT); assay type: cell-based; conditions: XTT read-out three days after compound addition
Protocol: The cell viability assay in A375 cells is set up in a 96-well plate format using XTT. XTT is a yellow tetrazolium salt that is cleaved to an orange formazan dye by the mitochondria of metabolically active cells. The procedure allows for rapid determination in a microtitre plate, to give reproducible and sensitive results.
A375 cells are grown in DMEM media containing 10% FBS and 1 mM sodium pyruvate. Cells are trypsinized and seeded at 1000 cells/well. After allowing the cells to adhere overnight, compound is added to the wells at the following final concentrations: 10, 3, 1, 0.3, 0.1, 0.03, 0.01, 0.001, and 0.0001 μM. The assay is set up in triplicates for each concentration. DMSO concentrations are kept at 0.5%/well. Three days after compound addition, the XTT assay is performed. Wells are washed once with PBS. 100 μL of DMEM media without phenol red or FBS is added to each well. A working solution of XTT containing 1 mg/ml XTT and 100 μL of PMS (stock concentration 0.383 mg/ml) per 5 ml is prepared. 50 μL of the working solution of XTT is added to each well. Absorbance of the plate is read at 465 nm using a Spectramax 190 (Molecular Devices). The absorbance from wells with media and XTT alone, but without cells is considered the blank and subtracted from readings from all wells.
Percentage viability is calculated considering the blank subtracted value from wells treated with DMSO alone as 100% viable. G150 values are calculated using Graphpad Prism, using non-linear regression curve fit for sigmoidal dose response (variable slope).
The cell viability assay is further described in Scudiero, et. al., Cancer Research (1988) 48, 4827-4833; Weislow, et. al., J. Natl. Cancer Institute, (1989) 81, 577-586; and Roehm, et. al., J. Immunol. Methods [1991] 142:257-265.
(§1) The compounds of the above Examples were evaluated as inhibitors of the MAP kinase pathway in a BRAF-MEK-ERK enzymatic cascade assay and in a cell viability assay, the results of which are collated in Table 1 below.

[1] = test system: BRAF (V599E)-MEK1-ERK2 cascade (MAP kinase pathway); assay: BRAF-MEK-ERK enzymatic cascade assay (TR-FRET); assay type: biochemical, human; conditions: compound at 10 μM, 45 min pre-incubation with enzymes, 100 μM ATP, 90 min reaction
Description: A BRAF-MEK-ERK cascade assay is used to evaluate the effects of these compounds as inhibitors of the MAP kinase pathway. An enzymatic cascade assay is set up using recombinant human activated BRAF (V599E) kinase (Cat No. 14-557), human full length unactive MEK1 kinase (Cat No. 14-706) and human full length unactive MAP Kinase 2/ERK2 (Cat No. 14-536) enzymes procured from Upstate. TR-FRET (Time resolved fluorescence resonance energy transfer) detection technology is used for the read out. The assay buffer solution contains 50 mM Tris pH 7.5, 10 mM MgCl2, 1 mM DTT, 0.01% Tween 20, 0.1 nM activated BRAF, 2 nM unactive MEK1, 10 nM unactive ERK2, 100 μM ATP and 500 nM long chain biotin-peptide substrate (LCB-FFKNIVTPRTPPP) in a 384 well format. The kinase reaction is stopped after 90 minutes with 10 mM EDTA and Lance detection mix (2 nM Eu-labeled phospho-serine/threonine antibody (Cat. No. AD0176-Perkin Elmer), 20 nM SA-APC (Cat No. CR130-100-Perkin Elmer) is added. The TR-FRET signal (Excitation at 340 nm, Emission at 615 nm and 665 nm) is read with […] on a Victor3 V fluorimeter. The data is calculated using the ratio of readings at 665 nm to 615 nm. The final concentration of DMSO is 2.5% in the assay. Compounds are screened at 10 μM concentration with pre-incubation of the enzymes in the presence of test compound for 45 minutes. […]
These assays described above are fully detailed in Han, Shulin, et. al., Bioorganic & Medicinal Chemistry Letters (2005) 15, 5467-5473, and in Yeh, et. al., Clin Cancer Res (2007) 13 (5), 1576-1583.
as §1

Compound	GI50 (A375 cells; listed as 1J-isomer 1)	% inhibition (10 μM) [1]	GI50 (A375 cells; listed as 1J-isomer 2)	GI50 (A375 cells; Homo sapiens, A-375, 72 h)
O=S(=O)(Nc1c(Nc2ccc(I)cc2F)c(F)c(F)c2ncoc12)C1(CC(O)CO)CC1 (single isomer, unassigned) [Example 1J-isomer 1, N-(4,5-Difluoro-6-(2-fluoro-4-iodophenylamino)benzo[d]oxazol-7-yl)-1-(2,3-dihydroxypropyl)cyclopropane-1-sulfonamide]	96 nM	99%		
O=S(=O)(Nc1c(Nc2ccc(I)cc2F)c(F)c(F)c2ncoc12)C1(CC(O)CO)CC1 (single isomer, unassigned) [Example 1J-isomer 2, N-(4,5-Difluoro-6-(2-fluoro-4-iodophenylamino)benzo[d]oxazol-7-yl)-1-(2,3-dihydroxypropyl)cyclopropane-1-sulfonamide]		99%	46 nM	
Cc1nc2c(F)c(F)c(Nc3ccc(I)cc3F)c(NS(=O)(=O)N(C)C)c2o1 [Example 1B, Dimethylsulfamic acid [4,5-difluoro-6-(2-fluoro-4-iodo-phenylamino)-2-methyl-benzooxazol-7-yl]-amide]		100%		2010 nM
Cc1nc2c(F)c(F)c(Nc3ccc(I)cc3F)c(NS(=O)(=O)C3CC3)c2o1 [Example 1E, Cyclopropanesulfonic acid [4,5-difluoro-6-(2-fluoro-4-iodo-phenylamino)-2-methyl-benzooxazol-7-yl]amide]		93%		1000 nM
CN(C)S(=O)(=O)Nc1c(Nc2ccc(Br)cc2F)c(F)c(F)c2ncoc12 [Example 1F, Dimethylsulfamic acid [4,5-difluoro-6-(2-fluoro-4-bromo-phenylamino)-benzooxazol-7-yl]-amide]		99%		2370 nM
O=S(=O)(Nc1c(Nc2ccc(Br)cc2F)c(F)c(F)c2ncoc12)C1CC1 [Example 1G]		92%		> 10000 nM
Cc1nc2c(F)c(F)c(Nc3ccc(Br)cc3F)c(NS(=O)(=O)C3CC3)c2o1 [Example 1H, Cyclopropanesulfonic acid [6-(4-bromo-2-fluoro-phenylamino)-4,5-difluoro-2-methyl-benzooxazol-7-yl]-amide]		10%		
O=S(=O)(Nc1c(Nc2ccc(I)cc2F)c(F)c(F)c2ncoc12)C1CC1COCc1ccccc1 (centres unmarked) [Example 1K, 2-(Benzyloxymethyl)-N-(4,5-difluoro-6-(2-fluoro-4-iodophenylamino)benzo[d]oxazol-7-yl)cyclopropane-1-sulfonamide]		100%		5700 nM
O=S(=O)(Nc1c(Nc2ccc(I)cc2F)c(F)c(F)c2ncoc12)C1CC1CO (centres unmarked) [Example 1L, N-(4,5-Difluoro-6-(2-fluoro-4-iodophenylamino)benzo[d]oxazol-7-yl)-2-(hydroxymethyl)cyclopropane-1-sulfonamide]		99%		2700 nM
O=S(=O)(Nc1c(Nc2ccc(I)cc2F)c(F)c(F)c2ncoc12)C1(COCc2ccccc2)CC1 [Example 1M, 1-(Benzyloxymethyl)-N-(4,5-difluoro-6-(2-fluoro-4-iodophenylamino)benzo[d]oxazol-7-yl)cyclopropane-1-sulfonamide]		95%		3550 nM

Second part, the compound after the results:

GI50 (A375 cells; listed as 1J-isomer 1)	% inhibition (10 μM) [1]	GI50 (A375 cells; listed as 1J-isomer 2)	GI50 (A375 cells; Homo sapiens, A-375, 72 h)	Compound
	100%		646 nM	CN(C)S(=O)(=O)Nc1c(Nc2ccc(I)cc2F)c(F)c(F)c2ncoc12 [Example 1C, Dimethylsulfamic acid [4,5-difluoro-6-(2-fluoro-4-iodo-phenylamino)-benzooxazol-7-yl]amide]
	100%		940 nM	C=CCC1(S(=O)(=O)Nc2c(Nc3ccc(I)cc3F)c(F)c(F)c3ncoc23)CC1 [Example 1D, 1-Allyl-cyclopropanesulfonic acid [4,5-difluoro-6-(2-fluoro-4-iodo-phenylamino)-benzooxazol-7-yl]-amide]
	100%		47 nM	O=S(=O)(Nc1c(Nc2ccc(I)cc2F)c(F)c(F)c2ncoc12)C1(CC(O)CO)CC1 (centres unmarked) [Example 1I, 1-(2,3-Dihydroxy-propyl)-cyclopropanesulfonic acid [4,5-difluoro-6-(2-fluoro-4-iodo-phenylamino)-benzooxazol-7-yl]-amide]
	100%		186 nM	O=S(=O)(Nc1c(Nc2ccc(I)cc2F)c(F)c(F)c2ncoc12)C1(CO)CC1 [Example 1N, N-(4,5-Difluoro-6-(2-fluoro-4-iodophenylamino)benzo[d]oxazol-7-yl)-1-(hydroxymethyl)cyclopropane-1-sulfonamide]
	99%		29 nM	O=S(=O)(Nc1c(Nc2ccc(I)cc2F)c(F)c(F)c2ccoc12)C1CC1 [Example 2A, Cyclopropane sulfonic acid [4,5-difluoro-6-(2-fluoro-4-iodo-phenylamino)-benzofuran-7-yl]amide]
	100%		17 nM	O=S(=O)(Nc1c(Nc2ccc(I)cc2F)c(F)c(F)c2ccoc12)C1(CC(O)CO)CC1 (centres unmarked) [Example 2B, 1-(2,3-Dihydroxy-propyl)-cyclopropanesulfonic acid [4,5-difluoro-6-(2-fluoro-4-iodo-phenylamino)-benzofuran-7-yl]amide]
	100%		12 nM	O=S(=O)(Nc1c(Nc2ccc(I)cc2F)c(F)c(F)c2ccoc12)C1(CCO)CC1 [Example 2C, 1-(2-Hydroxy-ethyl)-cyclopropanesulfonic acid [4,5-difluoro-6-(2-fluoro-4-iodo-phenylamino)-benzofuran-7-yl]amide]
	99%		119 nM	O=S(=O)(Nc1c(Nc2ccc(I)cc2F)c(F)c(F)c2ccoc12)C1CC1CO (centres unmarked) [Example 2D, 2-Hydroxymethyl-cyclopropanesulfonic acid [4,5-difluoro-6-(2-fluoro-4-iodo-phenylamino)-benzofuran-7-yl]-amide]
